Read-outs that look alike come from different tables or passages of the source.
Biological target: T1, human β3 adrenergic receptor (Homo sapiens, UniProt P13945)
T1 construct: expressed in transfected cells; host or cells: Chinese hamster ovary (CHO) cells, stably transfected
Assay: Beta-3 agonist in vitro functional assay: cAMP production (LANCE TR-FRET) in CHO cells stably transfected with the cloned β3 receptor
Type: cell-based
Description: Chinese hamster ovary (CHO) cells, stably transfected with the cloned β-adrenergic receptor (β1, β2 or β3) are harvested after 3 days of subculturing. Harvesting of cells is done with Enzyme-free Dissociation Media (Specialty Media). Cells are then counted and resuspended in assay buffer (Hank's Balanced salt solution supplemented with 5 mM HEPES, […]) containing a phosphodiesterase inhibitor (IBMX, 0.6 mM). The reaction is initiated by mixing 6,000 cells in 6 μL with 6 μL Alexa Fluor labeled cAMP antibody (LANCE™ kit) which is then added to an assay well containing 12 μL of compound (diluted in assay buffer to 2× final concentration). The reaction proceeds for 30 minutes at RT and is terminated by the addition of 24 ul detection buffer (LANCE™ kit). The assay plate is then incubated for 1 h at RT and time-resolved fluorescence measured on a Perkin Elmer Envision reader or equivalent. The unknown cAMP level is determined by comparing fluorescence levels to a cAMP standard curve.
The non-selective, full agonist β-adrenergic ligand isoproterenol is used at all three receptors to determine maximal stimulation. […] Data are analyzed using Microsoft Excel and Graphpad Prism or an internally developed data analysis software package.

[1] = Table 12, human β3 functional activity given as ranges, read-out: Human β3 agonist functional activity
[2] = given as a range, cAMP, CHO cells, read-out: human β3 functional activity

T1 sequence (P13945 whole entry): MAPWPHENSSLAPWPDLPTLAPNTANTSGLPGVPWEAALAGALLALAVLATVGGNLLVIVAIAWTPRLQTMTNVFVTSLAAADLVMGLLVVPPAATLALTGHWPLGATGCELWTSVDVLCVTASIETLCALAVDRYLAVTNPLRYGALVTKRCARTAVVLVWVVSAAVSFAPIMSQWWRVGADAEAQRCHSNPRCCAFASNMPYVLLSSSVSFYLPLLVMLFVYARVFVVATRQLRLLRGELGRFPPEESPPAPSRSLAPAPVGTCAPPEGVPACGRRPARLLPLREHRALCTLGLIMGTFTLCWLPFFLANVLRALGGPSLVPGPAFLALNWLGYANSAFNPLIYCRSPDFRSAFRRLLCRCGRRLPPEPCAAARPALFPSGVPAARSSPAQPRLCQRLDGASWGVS

| Structure (SMILES) | EC50 [1] [nM] | EC50 [2] [nM] |
| --- | --- | --- |
| CC(c1ncc2ccccc2n1)N1CCN(C(=O)c2ccc(C[C@@H]3CC[C@H]([C@H](O)c4ccccc4)N3)cc2)CC1 (mixture of isomers) [Example 572] | 1 to 9.9 | – |
| O=C(c1ccc(C[C@@H]2CC[C@H]([C@H](O)c3ccccc3)N2)cc1)N1CCC2(CC1)CC(C1CC1)OC2=O (single isomer, unassigned) [Ex. 553] | – | 1 to 9.9 |
| O=C(c1ccc(CC2CCC(C(O)c3ccccc3)N2)cc1)N1CCC2(CC1)CC(C1CC1)OC2=O (single isomer, unassigned) [Ex. 554] | – | 1 to 9.9 |
| O=C(c1ccc(CC2CCC(C(O)c3cccnc3)N2)cc1)N1CCC2(CC1)C(=O)NCC2c1ccc(F)cc1 (single isomer, unassigned) [Example 555] | 1 to 9.9 | – |
| O=C(c1ccc(CC2CCC(C(O)c3cccnc3)N2)cc1)N1CCC2(CC1)C(=O)NCC2c1ccc(F)cc1 (single isomer, unassigned) [Example 556] | 1 to 9.9 | – |
| O=C(c1ccc(CC2CCC(C(O)c3ccccc3)N2)cc1)N1CCC2(CC1)C(=O)NCC2c1ccc(F)cc1 (single isomer, unassigned) [Example 557] | 1 to 9.9 | – |
| O=C(c1ccc(CC2CCC(C(O)c3ccccc3)N2)cc1)N1CCC2(CC1)C(=O)NCC2c1ccc(F)cc1 (single isomer, unassigned) [Example 558] | < 1 | – |
| O=C1CC(c2ccccc2)C2(CCN(C(=O)c3ccc(CC4CCC(C(O)c5cccnc5)N4)cc3)CC2)O1 (single isomer, unassigned) [Example 559] | 100 to 999 | – |
| O=C1CC(c2ccccc2)C2(CCN(C(=O)c3ccc(CC4CCC(C(O)c5cccnc5)N4)cc3)CC2)O1 (single isomer, unassigned) [Example 560] | 1 to 9.9 | – |
| CC1CC2(CCN(C(=O)c3ccc(CC4CCC(C(O)c5ccccc5)N4)cc3)CC2)C(=O)O1 (single isomer, unassigned) [Example 561] | 1 to 9.9 | – |
| CC1CC2(CCN(C(=O)c3ccc(CC4CCC(C(O)c5ccccc5)N4)cc3)CC2)C(=O)O1 (single isomer, unassigned) [Example 562] | 1 to 9.9 | – |
| CCC1CC2(CCN(C(=O)c3ccc(CC4CCC(C(O)c5ccccc5)N4)cc3)CC2)C(=O)O1 (single isomer, unassigned) [Example 563] | 1 to 9.9 | – |
| CCC1CC2(CCN(C(=O)c3ccc(CC4CCC(C(O)c5ccccc5)N4)cc3)CC2)C(=O)O1 (single isomer, unassigned) [Example 564] | 1 to 9.9 | – |
| O=C(c1ccc(CC2CCC(C(O)c3ccccc3)N2)cc1)N1CCC2(CC1)CC(C(F)(F)F)OC2=O (single isomer, unassigned) [Example 565] | 1 to 9.9 | – |
| O=C(c1ccc(CC2CCC(C(O)c3ccccc3)N2)cc1)N1CCC2(CC1)CC(C(F)(F)F)OC2=O (single isomer, unassigned) [Example 566] | 10 to 99.9 | – |
| CC(C)C1CC2(CCN(C(=O)c3ccc(CC4CCC(C(O)c5ccccc5)N4)cc3)CC2)C(=O)O1 (single isomer, unassigned) [Example 567] | 1 to 9.9 | – |
| CC(C)C1CC2(CCN(C(=O)c3ccc(CC4CCC(C(O)c5ccccc5)N4)cc3)CC2)C(=O)O1 (single isomer, unassigned) [Example 568] | 10 to 99.9 | – |
| CC(C)(C)C1CC2(CCN(C(=O)c3ccc(CC4CCC(C(O)c5ccccc5)N4)cc3)CC2)C(=O)O1 (single isomer, unassigned) [Example 569] | 1 to 9.9 | – |
| CC(C)(C)C1CC2(CCN(C(=O)c3ccc(CC4CCC(C(O)c5ccccc5)N4)cc3)CC2)C(=O)O1 (single isomer, unassigned) [Example 570] | 1 to 9.9 | – |
| CC(c1ccccc1F)N1CCN(C(=O)c2ccc(CC3CCC(C(O)c4ccccc4)N3)cc2)CC1 (single isomer, unassigned) [Example 573] | 1 to 9.9 | – |
| CC(c1ccccc1F)N1CCN(C(=O)c2ccc(CC3CCC(C(O)c4ccccc4)N3)cc2)CC1 (single isomer, unassigned) [Example 574] | 10 to 99.9 | – |
| CC(c1ccn(C)n1)N1CCN(C(=O)c2ccc(CC3CCC(C(O)c4ccccc4)N3)cc2)CC1 (single isomer, unassigned) [Example 577] | 1 to 9.9 | – |
| CC(c1ccn(C)n1)N1CCN(C(=O)c2ccc(CC3CCC(C(O)c4ccccc4)N3)cc2)CC1 (single isomer, unassigned) [Example 578] | 100 to 999 | – |
| CC(c1cscn1)N1CCN(C(=O)c2ccc(C[C@@H]3CC[C@H]([C@H](O)c4ccccc4)N3)cc2)CC1 (single isomer, unassigned) [Example 580] | 10 to 99.9 | – |
| CC(c1nccs1)N1CCN(C(=O)c2ccc(CC3CCC(C(O)c4ccccc4)N3)cc2)CC1 (single isomer, unassigned) [Example 581] | 1 to 9.9 | – |

| Structure (SMILES) | EC50 [1] [nM] | EC50 [2] [nM] |
| --- | --- | --- |
| CC(c1nccs1)N1CCN(C(=O)c2ccc(CC3CCC(C(O)c4ccccc4)N3)cc2)CC1 (single isomer, unassigned) [Example 582] | 10 to 99.9 | – |
| CC(c1ncco1)N1CCN(C(=O)c2ccc(CC3CCC(C(O)c4ccccc4)N3)cc2)CC1 (single isomer, unassigned) [Example 583] | 10 to 99.9 | – |
| CC(c1ncco1)N1CCN(C(=O)c2ccc(CC3CCC(C(O)c4ccccc4)N3)cc2)CC1 (single isomer, unassigned) [Example 584] | 10 to 99.9 | – |
| CC(c1cocn1)N1CCN(C(=O)c2ccc(CC3CCC(C(O)c4ccccc4)N3)cc2)CC1 (single isomer, unassigned) [Example 585] | 10 to 99.9 | – |
| CC(c1cocn1)N1CCN(C(=O)c2ccc(CC3CCC(C(O)c4ccccc4)N3)cc2)CC1 (single isomer, unassigned) [Example 586] | 10 to 99.9 | – |
| CCC(c1ccccn1)N1CCN(C(=O)c2ccc(CC3CCC(C(O)c4ccccc4)N3)cc2)CC1 (single isomer, unassigned) [Example 587] | 10 to 99.9 | – |
| CCC(c1ccccn1)N1CCN(C(=O)c2ccc(CC3CCC(C(O)c4ccccc4)N3)cc2)CC1 (single isomer, unassigned) [Example 588] | 1 to 9.9 | – |
| O=C(c1ccc(CC2CCC(C(O)c3ccccc3)N2)cc1)N1CCN(C(c2ccccn2)C2CC2)CC1 (single isomer, unassigned) [Example 589] | 10 to 99.9 | – |
| O=C(c1ccc(CC2CCC(C(O)c3ccccc3)N2)cc1)N1CCN(C(c2ccccn2)C2CC2)CC1 (single isomer, unassigned) [Example 590] | 1 to 9.9 | – |
| CC(c1cccnn1)N1CCN(C(=O)c2ccc(CC3CCC(C(O)c4ccccc4)N3)cc2)CC1 (single isomer, unassigned) [Example 591] | 10 to 99.9 | – |
| CC(c1cccnn1)N1CCN(C(=O)c2ccc(CC3CCC(C(O)c4ccccc4)N3)cc2)CC1 (single isomer, unassigned) [Example 592] | 100 to 999 | – |
| CC(c1ncccc1Cl)N1CCN(C(=O)c2ccc(CC3CCC(C(O)c4ccccc4)N3)cc2)CC1 (single isomer, unassigned) [Example 593] | 1 to 9.9 | – |
| CC(c1ncccc1Cl)N1CCN(C(=O)c2ccc(CC3CCC(C(O)c4ccccc4)N3)cc2)CC1 (single isomer, unassigned) [Example 594] | 1 to 9.9 | – |
| CC(c1ncccn1)N1CCN(C(=O)c2ccc(CC3CCC(C(O)c4ccccc4)N3)cc2)CC1 (single isomer, unassigned) [Example 595] | 10 to 99.9 | – |
| CC(c1ncccn1)N1CCN(C(=O)c2ccc(CC3CCC(C(O)c4ccccc4)N3)cc2)CC1 (single isomer, unassigned) [Example 596] | 10 to 99.9 | – |
| O=C(c1ccc(CC2CCC(C(O)c3ccccc3)N2)cc1)N1CCN(C2CCc3cccnc32)CC1 (single isomer, unassigned) [Example 597] | 1 to 9.9 | – |
| O=C(c1ccc(CC2CCC(C(O)c3ccccc3)N2)cc1)N1CCN(C2CCc3cccnc32)CC1 (single isomer, unassigned) [Example 598] | 1 to 9.9 | – |
| O=C(c1ccc(C[C@@H]2CC[C@H]([C@H](O)c3ccccc3)N2)cc1)N1CCN(C2COc3cccnc32)CC1 (single isomer, unassigned) [Example 600] | 1 to 9.9 | – |
| O=C1OCCC1N1CCN(C(=O)c2ccc(CC3CCC(C(O)c4ccccc4)N3)cc2)CC1 (single isomer, unassigned) [Example 603] | 1 to 9.9 | – |
| O=C1OCCC1N1CCN(C(=O)c2ccc(CC3CCC(C(O)c4ccccc4)N3)cc2)CC1 (single isomer, unassigned) [Example 604] | 1 to 9.9 | – |
| O=C(c1ccc(CC2CCC(C(O)c3ccccc3)N2)cc1)N1CCN(C2CCN(c3ccccc3)C2=O)CC1 (single isomer, unassigned) [Example 605] | 1 to 9.9 | – |
| O=C(c1ccc(CC2CCC(C(O)c3ccccc3)N2)cc1)N1CCN(C2CCN(c3ccccc3)C2=O)CC1 (single isomer, unassigned) [Example 606] | 10 to 99.9 | – |
| O=C(c1ccc(CC2CCC(C(O)c3ccccc3)N2)cc1)N1CCN(C2CCN(C3CC3)C2=O)CC1 (single isomer, unassigned) [Example 607] | 100 to 999 | – |
| O=C(c1ccc(CC2CCC(C(O)c3ccccc3)N2)cc1)N1CCN(C2CCN(C3CC3)C2=O)CC1 (single isomer, unassigned) [Example 608] | 10 to 99.9 | – |
| O=C(c1ccc(C[C@@H]2CC[C@H]([C@H](O)c3ccccc3)N2)cc1)N1CC2CC(n3cccn3)CC2C1 (stereo partly drawn) [Example 1, (R)-phenyl[(2R,5S)-5-(4-{[5-(1H-pyrazol-1-yl)hexahydrocyclopenta[c]pyrrol-2(1H)-yl]carbonyl}benzyl)pyrrolidin-2-yl]methanol] | – | 10 to 99.9 |
